In patent publication US12115152B2, “Pan-RAF kinase inhibitor and use thereof” (HEFEI INSTITUTES OF PHYSICAL SCIENCE, CHINESE ACADEMY OF …, priority 2019, dated 2024):

How the values were obtained:
[1] = system: human acute leukemia cell NB4 (expressing KRAS-A18D mutant kinase); assay: Effect on proliferation of cancer cells, Cell Titer-Glo, 72 hours; assay type: cell-based; details: NB-4
Method: (§1) The compounds of the present invention were tested for their effect on growth of cancer cells (Table 2), to further evaluate the compounds herein for their inhibitory effect on proliferation of cancer cells and their selectivity in inhibiting proliferation of cancer cells.
(§2) The above-mentioned BaF3-FL-BRAF-V600E mutant cell line was constructed by the method as follows. The sequence of human full-length BRAF-V600E mutant kinase region was amplified by PCR, inserted into a MSCV-Puro vector (purchased from Clontech), and stably transfected into mouse BaF3 cells by the retroviral method, and the growth factor IL-3 was removed. Eventually, a cell line dependent on a full-length BRAF-V600E protein having various mutation transferred was obtained.
(§3) In the example, solutions of the test compound in DMSO at different concentrations (0.000508 μM, 0.00152 μM, 0.00457 μM, 0.0137 μM, 0.0411 μM, 0.123 μM, 0.370 μM, 1.11 μM, 3.33 μM, 10 μM) was added to the above cells respectively. The cells were incubated for 72 hours. The number of viable cells was detected with a Cell Titer-Glo (Promega, USA) Cell Viability Assay Kit by quantifying the ATP in viable cells. The values of GI50 (unit) of the compounds of the present invention against each of the test cells were determined.

[2] = system: human acute leukemia cell OCI-AML-3 (expressing NRAS-Q61L mutant kinase); assay: as above; assay type: cell-based; details: OCI-AML-3 cells
Method: as §1, §2, §3

[3] = system: melanoma cell A375 (expressing BRAF-V600E mutant kinase); assay: as above; assay type: cell-based; details: Homo sapiens, A-375
[4] = system: mouse BaF3-FL-BRAF-V600E (stably expressing full-length BRAF-V600E mutant kinase); assay: as above; assay type: cell-based
[5] = system: colorectal cancer cell COLO205 (expressing BRAF-V600E mutant kinase); assay: as above; assay type: cell-based; details: Homo sapiens, COLO 205
[6] = system: Calu-6, A375, BxPC3, HCT116, COLO205 cell transplanted tumors; assay: Drug efficacy in mouse transplanted tumor models; assay type: in vivo; details: mouse transplanted tumor models of cancer cells expressing KRAS, BRAF or NRAS mutations, oral daily dosing

SMILES | GI50 [1] [µM] | GI50 [2] [µM] | GI50 [3] [µM] | GI50 [4] [µM] | GI50 [5] [µM] | tumor inhibitory effect [6]
Cc1ccc(NC(=O)c2cccc(C(F)(F)F)c2)cc1-n1cc(-c2cccnc2)cn1 [compound 1, 3-trifluoromethyl-N-(4-methyl-3-(4-(pyrid-3-yl)-1H-pyrazol-1-yl)phenyl)benzamide, reference compound] | 0.083 | 0.02 | 0.085 | 0.017 | 0.15 | –
Cc1ccc(NC(=O)c2cccc(C(F)(F)F)c2)cc1-n1cc(-c2cncc(N3CCOCC3)c2)cn1 [Example 16, N-(4-methyl-3-(4-(5-morpholinopyrid-3-yl)-1H-pyrazol-1-yl)phenyl)-3-(trifluoromethyl)benzamide] | 0.027 | 0.021 | – | – | – | inhibitory effect superior to the control compounds
